Laboratory results as given in patent publication US20240360122A1, “POLYMORPHIC FORMS AND SALTS OF A GLP-1R AGONIST” (Terns (Suzhou) Biotechnology Co., Ltd., priority 2023, published 2024).
Converted amounts (≈) assume the structure as drawn. Structures can show the parent of a compound that is named as a salt.

Key:
[1] = Characterization of Compound 1 freeform forms: form change on storage or drying (XRPD); format: physicochemical
Description: Starting from Compound 1 Freeform Type D, polymorph screening experiments were performed under 50 conditions using different solvent-mediated crystallization or solid transition methods. The obtained solids were characterized by XRPD. According to XRPD comparison results, a total of 16 crystal forms were discovered, named as Type A˜P. The characterization results of all the forms were listed in Table 60.
Freeform Type O was obtained after adding anti-solvent toluene into DMSO solution of Freeform Type D and drying at ambient conditions. After drying at RT under vacuum for 1 day, diffraction peaks of Freeform Type K were observed. As Freeform Type K was a DMSO solvate, it is speculated that Freeform Type O was also a DMSO solvate.

[2] = Competitive experiments of Type A and Type B in different solvent system at different temperature; format: physicochemical; conditions: MeOH/MTBE system
[3] = Approximate solubility in different solvents at RT; format: physicochemical; conditions: RT; for solubility: organic solvent or mixture
Description: For each experiment, approximately 2 mg of sample was added into a 3-mL glass vial. Corresponding solvents were then added stepwise (50/50/200/700/1000 μL) into the vials until the solids were dissolved visually or a total volume of 2 mL was reached. Solubility results summarized in Table 64 to Table 66 were used to guide the solvent selection in polymorph screening design.

[4] = Hygroscopicity by DVS at 25° C.; format: physicochemical
Description: DVS was measured via a SMS (Surface Measurement Systems) DVS Intrinsic. The relative humidity at 25° C. were calibrated against deliquescence point of LiCl, Mg(NO3)2 and KCl.

[5] = Kinetic solubility in water and bio-relevant media (SGF, FaSSIF, FeSSIF) at 37° C.; format: physicochemical; conditions: for FC: Form change: residual solids by XRPD
Description: Add 4 mL of medium (H2O, SGF, FaSSIF and FeSSIF). • Rolled at 37° C. (˜25 rpm). Sampling at 1, 2, 4 and 24 hrs. • At each time-point, sampled 0.8 mL of solution or suspension into a centrifuge tube prior to centrifugation (12000 rpm, 37° C., 5 min) and filtration through 0.45 μm PTFE membrane. • Tested pH and concentration for the filtrate. Analyze residual solids by XRPD.
0.1 g of NaCl and 0.05 g of Triton X-100 were weighed into a 50-mL volumetric flask. Purified water was added to dissolve the solid. 67.5 μL HCl (38%, 12M) was added after the solid was dissolved completely. pH was then adjusted to 1.8 using HCl (1 M) or NaOH (1 M). Purified water was added to the volume.
(§1) 0.17 g of anhydrous NaH2PO4, 0.021 g of NaOH and 0.31 g of NaCl were weighed into a 50-mL volumetric flask. ˜48 mL purified water was added to dissolve the solid. pH was adjusted to 6.5 using 1M HCl or 1M NaOH. Purified water was then added to the volume. 0.11 g of SIF powder was added into the volumetric flask.
as §1, with “0.41 mL” for “0.17 g”, “acetic acid, 0.20” for “anhydrous NaH2PO4, 0.021”, “0.59” for “0.31”, “5.0” for “6.5”, “0.56” for “0.11”

[6] = Solid state stability at 25° C./60% RH and 40° C./75% RH for 1 week; format: physicochemical; conditions: for HPLC peak Area, RRT 1.00: main peak
Description: Each sample was added into a glass vial, sealed by parafilm with several holes, and kept under tested conditions. After one week, samples were taken for XRPD and HPLC purity test.

Description for physchem: 0.1 M KH2PO4 solution: added 1.36 g of solid KH2PO4 into a 100-mL volumetric flask, dissolve with ultrapure water and dilute to volume. 0.1 M K2HPO4 solution: added 1.74 g of solid K2HPO4 into a 100-mL volumetric flask, dissolve with ultrapure water and dilute to volume.
Transferred 100 mL of 0.1 M K2HPO4 solution and 30 mL of 0.1 M KH2PO4 to a 250-mL beaker and mix well. Adjusted to pH 7.4 with the KH2PO4 solution to obtain the aqueous pH 7.4 buffer. Pre-equilibrated n-octanol and aqueous buffer (phosphate pH 7.4 buffer) by adding 10 mL n-octanol and 10 mL aqueous buffer into a glass vial and keep it rolling for 24 hrs.
Weighed approximately 1.0 mg solids into a 3-mL glass vial which contained 2.0 mL of saturated n-octanol and accelerate dissolution by ultrasound sonication. Added 1.0 mL of complementary saturated aqueous buffer into the vial. Prepare samples in triplicate. Sealed the glass vial and mix on a rotary mixer at 25° C. for 24 hrs.
The phases were separated. The pH of the aqueous phase was measured by pH meter, and the concentrations of compounds in each phase were determined by HPLC. Samples in n-octanol phase were diluted 10 times by ACN. Distribution coefficient, referred to as Dow, was calculated as the concentration of the test compound in the n-octanol phase divided by the corresponding concentration in the aqueous phase.

N#Cc1ccc(COc2cccc(C3CCN(Cc4nc5ccc(C(=O)O)cc5n4Cc4cncs4)CC3)n2)c(F)c1 [Freeform Type O]
Form change ([1]; after drying at RT under vacuum): Change to Freeform Type K after drying at RT under vacuum.

N#Cc1ccc(COc2cccc(C3CCN(Cc4nc5ccc(C(=O)O)cc5n4Cc4cncs4)CC3)n2)c(F)c1 [Freeform Type F]
Form change ([1]; after storage at RT): Change to Freeform Type J after storage at RT.

N#Cc1ccc(COc2cccc(C3CCN(Cc4nc5ccc(C(=O)O)cc5n4Cc4cncs4)CC3)n2)c(F)c1 [Meglumine salt Type B]
thermodynamic stability, Type A versus Type B [2]: thermodynamically more stable

N#Cc1ccc(COc2cccc(C3CCN(Cc4nc5ccc(C(=O)O)cc5n4Cc4cncs4)CC3)n2)c(F)c1 [Freeform Type A]
solubility ([3]; 1,4-Dioxane, thermodynamic from solid, 1,4-Dioxane): 1900 to 6300 µg/mL (≈ 3.26 to 10.8 mM)
solubility ([3]; 2-MeTHF, thermodynamic from solid): 1900 to 6300 µg/mL (≈ 3.26 to 10.8 mM)
solubility ([3]; ACN, thermodynamic from solid): 1000 to 1900 µg/mL (≈ 1.72 to 3.26 mM)
solubility ([3]; Anisole, thermodynamic from solid): 1100 to 2100 µg/mL (≈ 1.89 to 3.6 mM)
solubility ([3]; CPME, thermodynamic from solid): 1100 to 2100 µg/mL (≈ 1.89 to 3.6 mM)
solubility ([3]; DMSO, thermodynamic from solid): > 40000 µg/mL
solubility ([3]; EtOAc, thermodynamic from solid): 2000 to 6700 µg/mL (≈ 3.43 to 11.5 mM)
Approximate solubility ([3]; H2O): S < 1.1 mg/mL
solubility ([3]; IPA, thermodynamic from solid): 1100 to 2200 µg/mL (≈ 1.89 to 3.78 mM)
solubility ([3]; IPAc, thermodynamic from solid): 1000 to 1900 µg/mL (≈ 1.72 to 3.26 mM)
solubility ([3]; MIBK, thermodynamic from solid): 1000 to 2000 µg/mL (≈ 1.72 to 3.43 mM)
solubility ([3]; MTBE, thermodynamic from solid): < 1000 µg/mL
solubility ([3]; MeOH, thermodynamic from solid): 6700 to 20000 µg/mL (≈ 11.5 to 34.3 mM)
Approximate solubility ([3]; THF): S > 38.0 mg/mL
solubility ([3]; Toluene, thermodynamic from solid): < 1100 µg/mL
solubility ([3]; n-Heptane, thermodynamic from solid): < 1000 µg/mL
logP (physchem): 4.78
logD at 24 h (physchem; pH 7.2): 1.96

N#Cc1ccc(COc2cccc(C3CCN(Cc4nc5ccc(C(=O)O)cc5n4Cc4cncs4)CC3)n2)c(F)c1 [Fumarate Type A]
water uptake (DVS) ([4]; 25° C./80% RH): 0.12%
hygroscopicity ([4]; DVS, 25° C.): non-hygroscopic
Water uptake at 25° C./80% RH ([4]; DVS, 25° C./80% RH): 0.12 wt %
For change after DVS ([4]; XRPD after DVS test): No
form change after DVS test (XRPD) ([4]; after DVS test): no form change
FC: Form change ([5]; FaSSIF, 37° C., 1 hr): No
FC: Form change ([5]; FaSSIF, 37° C., 2 hrs): No
FC: Form change ([5]; FaSSIF, 37° C., 4 hrs): No
FC: Form change ([5]; FaSSIF, 37° C., 24 hrs): No
FC: Form change ([5]; FeSSIF, 37° C., 1 hr): No
FC: Form change ([5]; FeSSIF, 37° C., 2 hrs): No
FC: Form change ([5]; FeSSIF, 37° C., 4 hrs): No
FC: Form change ([5]; FeSSIF, 37° C., 24 hrs): No
FC: Form change ([5]; H2O, 37° C., 1 hr): No
FC: Form change ([5]; H2O, 37° C., 2 hrs): No
FC: Form change ([5]; H2O, 37° C., 4 hrs): No
FC: Form change ([5]; H2O, 37° C., 24 hrs): No
FC: Form change ([5]; SGF, 37° C., 1 hr): No
FC: Form change ([5]; SGF, 37° C., 2 hrs): No
FC: Form change ([5]; SGF, 37° C., 4 hrs): No
FC: Form change ([5]; SGF, 37° C., 24 hrs): No
form change of residual solids (XRPD) after solubility test ([5]; all the media (H2O, SGF, FaSSIF, FeSSIF), after 24 hrs): No form change
solubility compared with the other selected salts ([5]; all the media, 37° C.): lowest solubility
HPLC peak Area, RRT 0.73 ([6]; 25° C./60% RH, 1 week): 0.14%
HPLC peak Area, RRT 0.80 ([6]; 25° C./60% RH, 1 week): 0.05%
HPLC peak Area, RRT 0.83 ([6]; 25° C./60% RH, 1 week): 1.98%
HPLC peak Area, RRT 0.90 ([6]; 25° C./60% RH, 1 week): 0.10%
HPLC peak Area, RRT 0.99 ([6]; 25° C./60% RH, 1 week): 0.06%
HPLC peak Area, RRT 1.05 ([6]; 25° C./60% RH, 1 week): 0.28%
HPLC peak Area, RRT 1.10 ([6]; 25° C./60% RH, 1 week): 0.89%
HPLC peak Area, RRT 1.12 ([6]; 25° C./60% RH, 1 week): 0.06%
HPLC peak Area, RRT 1.15 ([6]; 25° C./60% RH, 1 week): 0.25%
HPLC peak Area, RRT 1.34 ([6]; 25° C./60% RH, 1 week): 0.07%
HPLC peak Area, RRT 1.00 ([6]; 25° C./60% RH, 1 week): 96.13%
Form change ([6]; 25° C./60% RH/Open/1 week): No
Purity ([6]; 25° C./60% RH/Open/1 week): 96.13 Area %
solid-state stability: form change and purity decrease ([6]; 25° C./60% RH/open and 40° C./75% RH/open, 1 week): no form change or significant purity decrease
HPLC peak Area, RRT 0.73 ([6]; 40° C./75% RH, 1 week): 0.13%
HPLC peak Area, RRT 0.80 ([6]; 40° C./75% RH, 1 week): <0.05%
HPLC peak Area, RRT 0.83 ([6]; 40° C./75% RH, 1 week): 1.89%
HPLC peak Area, RRT 0.90 ([6]; 40° C./75% RH, 1 week): 0.09%
HPLC peak Area, RRT 0.99 ([6]; 40° C./75% RH, 1 week): <0.05%
HPLC peak Area, RRT 1.05 ([6]; 40° C./75% RH, 1 week): 0.29%
HPLC peak Area, RRT 1.10 ([6]; 40° C./75% RH, 1 week): 0.87%
HPLC peak Area, RRT 1.12 ([6]; 40° C./75% RH, 1 week): 0.05%
HPLC peak Area, RRT 1.15 ([6]; 40° C./75% RH, 1 week): 0.26%
HPLC peak Area, RRT 1.34 ([6]; 40° C./75% RH, 1 week): 0.06%
HPLC peak Area, RRT 1.00 ([6]; 40° C./75% RH, 1 week): 96.37%
Form change ([6]; 40° C./75% RH/Open/1 week): No
Purity ([6]; 40° C./75% RH/Open/1 week): 96.37 Area %
HPLC peak Area, RRT 0.73 ([6]; Initial): 0.13%
HPLC peak Area, RRT 0.80 ([6]; Initial): <0.05%
HPLC peak Area, RRT 0.83 ([6]; Initial): 1.91%
HPLC peak Area, RRT 0.90 ([6]; Initial): 0.09%
HPLC peak Area, RRT 0.99 ([6]; Initial): <0.05%
HPLC peak Area, RRT 1.05 ([6]; Initial): 0.27%
HPLC peak Area, RRT 1.10 ([6]; Initial): 0.87%
HPLC peak Area, RRT 1.12 ([6]; Initial): 0.05%
HPLC peak Area, RRT 1.15 ([6]; Initial): 0.24%
HPLC peak Area, RRT 1.34 ([6]; Initial): 0.06%
Purity ([6]; Initial): 96.37 Area %
HPLC peak Area, RRT 1.00 ([6]; Initial): 96.37%
